The results in this text go back to patent US7342025B2, “Substituted C-imidazo[1,2-a]pyridin-3-yl-methylamines” (Gruenenthal GmbH, priority 2002, dated 2008).

The experiment has as its target nitrogen monoxide synthase (Rattus norvegicus, UniProt P29476). The experiment in a line: citrulline assay, inhibition of NO synthase. It is filed as biochemical. The method, then: The IC50 value of each of the example compounds as an inhibitor of NO synthase was determined in a citrulline assay. This assay was carried out as described by D. S. Bredt and S. H. Snyder (Proc. Natl. Acad. Sci. USA (1990), 87, 682-685).

Each structure is given as a SMILES string.

What is called IC50 is the concentration needed to halve the response being measured. A higher IC50 goes with weaker potency in that assay. The compound `Cc1ccn2c(CN(C)C)c(C)nc2c1` [Example 1] gave an IC50 of 4 µM.
`Cc1ccnc(NCc2c(C)nc3cc(C)ccn23)c1` [Example 2, (2,7-Dimethyl-imidazo[1,2-a]pyridin-3-ylmethyl)-(4-methyl-pyridin-2-yl)-amine] came in with a half-inhibitory concentration (IC50) of 2.5 µM.
